In patent US10188754B2, “Compositions and methods for chemical exchange saturation transfer (CEST) based magnetic resonance imaging (MRI)” (THE JOHNS HOPKINS UNIVERSITY, priority 2013, dated 2019):

assay: not given; type: physicochemical; details: Table 2; 10 mM, pH 7.3-7.4, tsat = 3 sec, ω1 = 3.6 μT, 37° C.

Structure (SMILES)	Signal (ppm)
O=C(O)c1cc([N+](=O)[O-])cc([N+](=O)[O-])c1O [Compound 15, 3,5-Dinitrosalicylic acid]	None
O=C(O)c1ccc(O)cc1O [Compound 16]	9.5 ppm
Nc1ccc(C(=O)O)c(O)c1 [Compound 17]	9.5 ppm
O=C(O)c1cc([N+](=O)[O-])ccc1O [Compound 14, 5-nitrosalicylic acid]	10.3 ppm

same assay, conditions: Table 3; 10 mM, pH 7.3-7.4, tsat = 3 sec, ω1 = 3.6 μT, 37° C.

Signal (ppm)	Structure (SMILES)
9.5	O=C(O)c1c(O)ccc2ccccc12 [Compound 20, 2-hydroxy-l-naphthoic acid]
9.0	COc1cccc(O)c1C(=O)O [Compound 21, 6-methoxysalicylic acid]

same assay, conditions: Table 4; 10 mM, pH 7.3-7.4, tsat = 3 sec, ω1 = 3.6 μT, 37° C.

Structure (SMILES)	Signal (ppm)
O=C(O)c1cccc([N+](=O)[O-])c1O [Compound 36, 3-nitrosalicylic acid]	12.0
O=C(O)c1cccc(F)c1O [Compound 25]	9.5
CC(C)(C)c1cc(C(=O)O)c(O)c(C(C)(C)C)c1 [Compound 24, 3,5-di-tert-butylsalicylic acid]	9.3
COc1cccc(C(=O)O)c1O [Compound 32, 3-methoxysalicylic acid]	9.3
O=C(O)c1ccc2cccnc2c1O [Compound 30, 8-hydroxy-7-quinolinecarboxylic acid]	10.3
O=C(O)c1cccc(O)c1O [Compound 31, 2,3-dihydroxybenzoic acid]	9.0

The next lines start with the values.

Signal (ppm)	Structure (SMILES)
9.5	Cc1cccc(C(=O)O)c1O [Compound 23, 3-Methylsalicylic acid]
10.5	O=Cc1cccc(C(=O)O)c1O [Compound 34, 3-Formylsalicylic acid]
9.5	O=C(O)c1cccc(C(=O)O)c1O [Compound 35, 2-hydroxyisophthalic acid]

same assay, conditions: Table 5; 10 mM, pH 7.3-7.4, tsat = 3 sec, ω1 = 3.6 μT, 37° C.

Signal (ppm)	Structure (SMILES)
7.8	Cc1ccc(S(=O)(=O)Nc2ccccc2C(=O)O)cc1 [Compound 40]
7.3	CS(=O)(=O)Nc1ccccc1C(=O)O [Compound 39]
4.8	O=C(O)c1ccccc1Nc1ccccc1 [Compound 37]

same assay, conditions: Table 6; 10 mM, pH 7.3-7.4, tsat = 3 sec, ω1 = 3.6 μT, 37° C.

Signal (ppm)	Structure (SMILES)
8.3	O=C(O)c1cc(O)c(C(=O)O)cc1O [Compound 42]
9.5	O=C(O)c1cc2ccccc2c(Cc2c(O)c(C(=O)O)cc3ccccc23)c1O [Compound 44, Pamoic acid]

assay: not given; details: Table 2; 10 mM, pH 7.3-7.4, 37° C.

Structure (SMILES)	kex [s⁻¹]
O=C(O)c1ccc(O)cc1O [Compound 16]	460
Nc1ccc(C(=O)O)c(O)c1 [Compound 17]	384

same assay, conditions: Table 3; 10 mM, pH 7.3-7.4, 37° C.

kex [s⁻¹]	Structure (SMILES)
4400	O=C(O)c1c(O)ccc2ccccc12 [Compound 20, 2-hydroxy-l-naphthoic acid]
4900	COc1cccc(O)c1C(=O)O [Compound 21, 6-methoxysalicylic acid]

same assay, conditions: Table 4; 10 mM, pH 7.3-7.4, 37° C.

Structure (SMILES)	kex [s⁻¹]
O=C(O)c1cccc(F)c1O [Compound 25]	750
CC(C)(C)c1cc(C(=O)O)c(O)c(C(C)(C)C)c1 [Compound 24, 3,5-di-tert-butylsalicylic acid]	22
COc1cccc(C(=O)O)c1O [Compound 32, 3-methoxysalicylic acid]	480

Second part, the molecule after the results:

kex [s⁻¹]	Structure (SMILES)
250	Cc1cccc(C(=O)O)c1O [Compound 23, 3-Methylsalicylic acid]
510	O=Cc1cccc(C(=O)O)c1O [Compound 34, 3-Formylsalicylic acid]

same assay, conditions: Table 5; 10 mM, pH 7.3-7.4, 37° C.

kex [s⁻¹]	Structure (SMILES)
440	Cc1ccc(S(=O)(=O)Nc2ccccc2C(=O)O)cc1 [Compound 40]
470	CS(=O)(=O)Nc1ccccc1C(=O)O [Compound 39]
670	O=C(O)c1ccccc1Nc1ccccc1 [Compound 37]

same assay, conditions: Table 6; 10 mM, pH 7.3-7.4, 37° C.

kex [s⁻¹]	Structure (SMILES)
990	O=C(O)c1cc(O)c(C(=O)O)cc1O [Compound 42]
130	O=C(O)c1cc2ccccc2c(Cc2c(O)c(C(=O)O)cc3ccccc23)c1O [Compound 44, Pamoic acid]

assay: Screening of beta-hydroxy carboxylate analogs for CEST contrast (Table 4A); details: Concentration 5 mM

Signal (ppm)	Structure (SMILES)
None	Cc1cccc(Nc2ccccc2C(=O)O)c1C [Entry 52]
4.8 ppm	Cc1ccc(Cl)c(Nc2ccccc2C(=O)O)c1Cl [Entry 51]
None	Cc1cccc(Nc2ccccc2C(=O)O)c1Cl [Entry 53]

same assay, conditions: Concentration 10 mM

Structure (SMILES)	Signal (ppm)	kex [s⁻¹]
O=Cc1cc(C(=O)O)ccc1O [Entry 9]	None	
O=C(O)c1ccc([N+](=O)[O-])cc1O [Entry 24]	9.5 ppm	1500
Nc1ccc(C(=O)O)c(O)c1 [Entry 22]	9.5 ppm	384
O=[N+]([O-])c1ccccc1O [Entry 6]	None	
O=C(O)c1ccccc1Nc1cccc(C(F)(F)F)c1 [Entry 50]	4.8 ppm	1000
O=C(O)CNC(=O)c1ccccc1O [Entry 3]	None	
NC(Cc1cc(I)c(O)c(I)c1)C(=O)O (stereo not shown) [Entry 14]	None	
CS(=O)(=O)Nc1ccccc1C(=O)O [Entry 58]	7.3 ppm	470
O=C(O)c1cc(Cl)cc(Cl)c1O [Entry 31]	10.3 ppm	1070
O=C(O)c1ccc(O)c(/C=N/CC/N=C/c2cc(C(=O)O)ccc2O)c1 [Entry 11]	7.8 ppm	15400
Nc1cccc(C(=O)O)c1O [Entry 38]	9.0 ppm	410
O=C(O)c1ccccc1NC(=O)C(F)(F)F [Entry 57]	9.3 ppm	190
O/N=C/c1ccccc1O [Entry 10]	None	
O=C(O)c1ccc(O)cc1O [Entry 21]	9.5 ppm	462
[O-][n+]1cccc2cccc(O)c21 [Entry 8]	9.5 ppm	32
O=C(O)c1cc(Cl)ccc1O [Entry 17]	9.0 ppm	290
CS(=O)(=O)Nc1ccc(N)cc1C(=O)O [Entry 61]	6.3 ppm	550
COc1cccc(O)c1C(=O)O [Entry 26]	9.0 ppm	4900
O=C(O)c1cccc(O)c1O [Entry 36]	9.0 ppm	2000
O=C(O)c1cc([N+](=O)[O-])ccc1O [Entry 19]	10.3 ppm	5660
O=C(O)c1cc([N+](=O)[O-])cc([N+](=O)[O-])c1O [Entry 20]	None	
COC(=O)c1ccc(O)c([N+](=O)[O-])c1 [Entry 7]	None	
O=C(O)c1cc(Br)cc(Br)c1O [Entry 32]	10.5 ppm	580

More lines, now with the values ahead:

Signal (ppm)	kex [s⁻¹]	Structure (SMILES)
7.8 ppm	440	Cc1ccc(S(=O)(=O)Nc2ccccc2C(=O)O)cc1 [Entry 62]
10.8 ppm	310	O=C(O)c1cc(I)cc(I)c1O [Entry 33]
None		O=C(O)c1cccnc1Nc1cccc(C(F)(F)F)c1 [Entry 54]
9.5 ppm	4400	O=C(O)c1c(O)ccc2ccccc12 [Entry 25]
None		COC(=O)c1cc([N+](=O)[O-])ccc1O [Entry 5]
9.3 ppm	480	COc1cccc(C(=O)O)c1O [Entry 37]
12.0 ppm	1430	O=C(O)c1cccc([N+](=O)[O-])c1O [Entry 41]
4.8 ppm	674	O=C(O)c1ccccc1Nc1ccccc1 [Entry 49]
9.8 ppm	460	O=C(O)c1cc(C(=O)O)c(O)cc1O [Entry 43]
9.5 ppm	750	O=C(O)c1cccc(F)c1O [Entry 30]
9.3 ppm	30	O=C(O)c1c(O)cccc1O [Entry 27]
9.5 ppm	130	O=C(O)c1cc2ccccc2c(Cc2c(O)c(C(=O)O)cc3ccccc23)c1O [Entry 44]
9.5 ppm	6680	O=C(O)c1cccc(C(=O)O)c1O [Entry 40]
9.3 ppm	420	O=C(O)c1ccc(C(=O)O)c(O)c1 [Entry 23]
None		COC(=O)c1ccccc1O [Entry 4]
None		Oc1ccccc1-c1nnn[nH]1 [Entry 13]
8.5 ppm	400	O=C(O)c1cc(O)ccc1O [Entry 15]
8.5 ppm	380	Nc1ccc(O)c(C(=O)O)c1 [Entry 16]
8.3 ppm	990	O=C(O)c1cc(O)c(C(=O)O)cc1O [Entry 42]
9.5 ppm	250	Cc1cccc(C(=O)O)c1O [Entry 28]
10.5 ppm	220	O=C(O)c1ccc2ccccc2c1O [Entry 34]
10.5 ppm	510	O=Cc1cccc(C(=O)O)c1O [Entry 39]
9.3 ppm	400	O=C(O)c1ccccc1O [Entry 1]
10.3 ppm	1530	O=C(O)c1ccc2cccnc2c1O [Entry 35]

same assay, conditions: Concentration 20 mM

Signal (ppm)	kex [s⁻¹]	Structure (SMILES)
9.3	22	CC(C)(C)c1cc(C(=O)O)c(O)c(C(C)(C)C)c1 [Entry 29]

same assay, conditions: Concentration 25 mM

Structure (SMILES)	Signal (ppm)	kex [s⁻¹]
O=C(O)c1ccccc1NS(=O)(=O)C(F)(F)F [Entry 63]	None	
Nc1ccccc1C(=O)O [Entry 47]	None	
CC(=O)Nc1ccccc1C(=O)O [Entry 55]	None	
CNc1ccccc1C(=O)O [Entry 48]	None	
Cc1ccc(NS(C)(=O)=O)c(C(=O)O)c1 [Entry 60]	7.0 ppm	500

Further lines, results first:

Signal (ppm)	kex [s⁻¹]	Structure (SMILES)
7.3 ppm	1000	CS(=O)(=O)Nc1ccc(Cl)cc1C(=O)O [Entry 59]
None		CC(C)(C)OC(=O)Nc1ccccc1C(=O)O [Entry 56]
9.3 ppm	650	O=C(O)c1ccc(-c2ccc(F)cc2F)cc1O [Entry 45]
9.6 ppm	1000	O=C(O)c1cc(/N=N\c2ccc(S(=O)(=O)Nc3ccccn3)cc2)ccc1O [Entry 46]
None		O=C(O)c1ccccc1N/N=C\c1ccccc1 [Entry 64]
